Values of other authors, collected in US20160378912A1, “STRUCTURE-BASED MODELING AND TARGET-SELECTIVITY PREDICTION” (EPIGENETX, LLC, priority 2013, published 2016).

Biological target: T1, HDAC7 (Homo sapiens, UniProt Q8WUI4)
T1 sequence (Q8WUI4 1-952): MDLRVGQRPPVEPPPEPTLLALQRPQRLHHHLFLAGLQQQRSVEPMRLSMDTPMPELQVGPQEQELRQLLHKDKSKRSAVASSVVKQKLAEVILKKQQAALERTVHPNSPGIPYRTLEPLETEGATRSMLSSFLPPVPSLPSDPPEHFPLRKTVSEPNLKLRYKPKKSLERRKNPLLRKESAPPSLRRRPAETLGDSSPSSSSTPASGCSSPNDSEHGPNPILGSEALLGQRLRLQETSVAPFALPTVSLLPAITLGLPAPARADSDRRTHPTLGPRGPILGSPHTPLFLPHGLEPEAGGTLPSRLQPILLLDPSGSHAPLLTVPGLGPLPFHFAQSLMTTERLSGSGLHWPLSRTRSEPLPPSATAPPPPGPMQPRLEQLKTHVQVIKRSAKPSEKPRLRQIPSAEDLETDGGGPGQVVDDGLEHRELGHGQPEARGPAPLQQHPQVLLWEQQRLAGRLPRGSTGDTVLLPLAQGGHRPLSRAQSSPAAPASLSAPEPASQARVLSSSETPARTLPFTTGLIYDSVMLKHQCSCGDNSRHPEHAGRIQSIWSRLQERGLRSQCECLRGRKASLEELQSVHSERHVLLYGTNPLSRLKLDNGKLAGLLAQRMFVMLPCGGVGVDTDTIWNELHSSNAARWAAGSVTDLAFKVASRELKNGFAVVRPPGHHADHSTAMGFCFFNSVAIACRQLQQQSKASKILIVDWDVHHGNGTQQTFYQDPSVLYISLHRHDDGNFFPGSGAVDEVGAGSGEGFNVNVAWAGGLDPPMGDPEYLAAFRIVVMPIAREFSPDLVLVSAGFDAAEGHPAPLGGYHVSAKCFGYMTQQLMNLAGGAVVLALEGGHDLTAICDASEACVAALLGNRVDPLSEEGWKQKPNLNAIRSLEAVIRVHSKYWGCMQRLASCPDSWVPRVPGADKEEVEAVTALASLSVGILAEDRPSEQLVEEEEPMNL
Conditions: cited from earlier work

## CCCC(=O)O [NABUT, Butyrate]
Training set composition
  pIC50: 4.52
Training set, read-out: HDACs inhibitory activities IC50
  IC50: 30 µM
